# Tested on: A431 cells
# Test: Apoptosis, annexin V/propidium iodide (AV/PI) test
# Format: cell-based, human
# Conditions: 12 h; for death by targeted apoptosis of mutated cancer cells: A431 vs HEK001, linalool 320 nL/mL, carvacrol 60 nL/mL, thymol 30 nL/mL; for cytotoxic efficacy compared with the complex essential oils: concentrations equal to those present in the essential oil treatments
# Description: These three molecules were incubated for 12 h with non-mutated immortalized keratinocytes (HEK001) and mutated cancerous keratinocytes (A431). The percentage of cells in apoptosis was measured by the annexin V/propidium iodide test. The concentrations of the molecules used were equal to those present during the treatments with the essential oils. Example: the concentration of linalool used here represents the equivalent of 80% of linalool present in the essential oil of rosewood.
# Annexin V/Propidium Iodide Test:
# One of the markers for apoptosis is the translocation of phosphatidyl-serine from the internal face towards the external face of the plasma membrane (translocation, allowing apoptotic bodies to be recognized and phagocyted by the macrophages).
# The AV/PI test can be used to detect this event because of the affinity of the protein annexin V for phosphatidyl-serine. Propidium iodide, which targets DNA, can be used to distinguish early apoptotic cells from cells in late apoptosis and/or in necrosis.
# After the desired treatment time, the medium was eliminated, the cells were harvested (by trypsinization), centrifuged and rinsed in 4 mL of PBS 1×. Tagging was carried out following the instructions of the manufacturer (Kit Vybrant, Molecular Probe). The cells were rapidly taken up in 100 μl of tagging buffer, to which 6 μl of annexin V and 3 μg/mL of propidium iodide per sample was added. The cells were then incubated for 30 min in the dark (at ambient temperature). Four hundred μL of tagging buffer was added before measuring the fluorescence of the annexin V (at 530 nm) and of the propidium iodide (at 610 nm).
SMILES,apoptotic A431 cells (60 nL/mL),death by targeted apoptosis of mutated cancer cells,cytotoxic efficacy compared with the complex essential oils,apoptotic A431 cells (30 nL/mL)
Cc1ccc(C(C)C)cc1O [carvacrol],~25%,qualitatively conserved,lower than with complex essential oils,–
C=CC(C)(O)CCC=C(C)C (centres unmarked) [linalool],–,qualitatively conserved,lower than with complex essential oils,–
Cc1ccc(C(C)C)c(O)c1 [thymol],–,qualitatively conserved,lower than with complex essential oils,approximately 15%

# — patent publication US9040103B2, “Use of essential oil of oregano and of rosewood, or constituents thereof, in the therapeutic treatment of keratoses” (L'Oreal, priority 2010, dated 2015)
